Assay in all cases: Antifungal activity (GI80), growth inhibition in YPD20 medium by absorbance at 600 nm
What all share (assay type): cell-based

The subject of assay [1] is C. albicans ATCC MYA-573. Conditions: minimum concentration for at least 80% cell growth inhibition, 37° C., absorbance 600 nm; for IC80: Candida albicans, read-out: GI80 (μg/ml) C. albicans ATCC MYA-573. The method, then:
(§1) The antifungal activity of the compounds of the invention was determined according to the method mentioned below.
(§2) An YPD20 medium (1% yeast extract, 2% peptone, 20% glucose) was used,
(§3) (2) Preparation of Cell Liquid for Inoculation:
(§4) Cells incubated overnight with Sabouraud dextrose agar at 30° C. were suspended in 0.1% Tween 80-added saline, and then added to a concentrated medium (1.33% yeast extract, 2.67% peptone, 13.33% glucose) so that the final cell concentration could be 5×10^3 cells/ml, thereby preparing a cell liquid for inoculation.
(§5) (3) Production of Chemical Dilution Plate:
(§6) A metered sample was dissolved in dimethyl sulfoxide, and a 2-fold dilution series was prepared using dimethyl sulfoxide. A chemical dilution of 2 μl each was added to a flat-bottom 96-well plate with 40% glucose (48 μl) put in each well, thereby producing a chemical dilution plate.
(§7) (4) Inoculation and Cultivation of Cell Liquid:
(§8) The cell liquid (150 μl) prepared in (2) was added to the chemical dilution plate produced in (3), followed by aerobic static cultivation at 37° C.
(§9) (5) Determination of Antifungal Activity (GI80 Value):
(§10) After cultivation for […], the plate was stirred, and its absorbance (600 nm) was measured. Based on the absorbance as the index, the minimum chemical concentration for at least 80% cell growth inhibition relative to the cell growth in the chemical-free well was computed as a GI80 value.

For assay [2], the system named is C. albicans ATCC90028. Conditions: 37° C., absorbance 600 nm; for IC80: Candida albicans, ATCC90028, minimum concentration for at least 80% cell growth inhibition, read-out: GI80 (μg/ml) C. albicans ATCC90028; for GI80 (μg/ml) C. albicans ATCC90028: minimum concentration for at least 80% cell growth inhibition. On the procedure:
as §1, §2, §3, §4, §5, §6, §7, §8, §9, §10

Assay [3] concerns C. glabrata ATCC48435. Conditions: 37° C., absorbance 600 nm; for IC80: Nakaseomyces glabratus, ATCC48435, minimum concentration for at least 80% cell growth inhibition, read-out: GI80 (μg/ml) C. glabrata ATCC48435; for GI80 (μg/ml) C. glabrata ATCC48435: minimum concentration for at least 80% cell growth inhibition. The method, then:
as §1, §2, §3, §4, §5, §6, §7, §8, §9, §10

In brackets after ≈: the same amount, converted by molar mass.

Turning to `Cc1c(-c2ccccc2)c(N2CC[C@H](N(C)C)C2)c2oc(N(C)Cc3ncn[nH]3)nc2c1C#N` [Example 72, 7-[(3S)-3-(Dimethylamino)pyrrolidin-1-yl]-5-methyl-2-[methyl(1H-1,2,4-triazol-5-ylmethyl)amino]-6-phenyl-1,3-benzoxazole-4-carbonitrile], the IC80 in assay [1] came out at 0.5 µg/mL (≈ 1.1 µM); in assay [2] it was 0.5 µg/mL (≈ 1.1 µM); in assay [3] it was 0.125 µg/mL (≈ 0.274 µM).

Regarding `Cc1c(-c2cc(F)cc(F)c2)c(N2CC[C@H](N(C)C)C2)c2oc(C3CC3)nc2c1C#N` [Example 82, 2-Cyclopropyl-6-(3,5-difluorophenyl)-7-[(3S)-3-(dimethylamino)pyrrolidin-1-yl]-5-methyl-1,3-benzoxazole-4-carbonitrile], the IC80 in assay [1] stood at 0.125 µg/mL (≈ 0.296 µM); in assay [2], 0.063 µg/mL (≈ 0.149 µM); in assay [3], 0.032 µg/mL (≈ 0.0757 µM).

On to `Cc1c(-c2cccc(F)c2F)c(N2CC[C@H](N(C)C)C2)c2oc(C3CC3)nc2c1C#N` [Example 83, 2-Cyclopropyl-6-(2,3-difluorophenyl)-7-[(3S)-3-(dimethylamino)pyrrolidin-1-yl]-5-methyl-1,3-benzoxazole-4-carbonitrile], for which the figures for the IC80 in assay [1], in assay [2] and in assay [3] were 0.5 µg/mL (≈ 1.18 µM), 0.5 µg/mL (≈ 1.18 µM) and 0.125 µg/mL (≈ 0.296 µM), respectively.

`Cc1c(-c2ccccc2)c(N2CC[C@H](N(C)C)C2)c2oc(-c3nccs3)nc2c1C#N` [Example 93, 7-[(3S)-3-(Dimethylamino)pyrrolidin-1-yl]-5-methyl-6-phenyl-2-(1,3-thiazol-2-yl)-1,3-benzoxazole-4-carbonitrile]: the results for the IC80 in assay [1], in assay [2] and in assay [3] were 0.125 µg/mL (≈ 0.291 µM), 0.125 µg/mL (≈ 0.291 µM) and 0.032 µg/mL (≈ 0.0745 µM), respectively.

As to `Cc1c(-c2ccccc2)c(N2CC[C@H](N(C)C)C2)c2oc(C3CCC3)nc2c1C#N` [Example 106, 2-Cyclobutyl-7-[(3S)-3-(dimethylamino)pyrrolidin-1-yl]-5-methyl-6-phenyl-1,3-benzoxazole-4-carbonitrile], the IC80 in assay [1] is 0.125 µg/mL (≈ 0.312 µM); in assay [2], 0.063 µg/mL (≈ 0.157 µM); in assay [3], below 0.016 µg/mL.

Regarding `Cc1c(-c2ccccc2)c(N2CC[C@H](N(C)C)C2)c2oc(Cc3ccco3)nc2c1C#N` [Example 122, 7-[(3S)-3-(Dimethylamino)pyrrolidin-1-yl]-2-(2-furylmethyl)-5-methyl-6-phenyl-1,3-benzoxazole-4-carbonitrile], the IC80 in assay [1] came out at 0.5 µg/mL (≈ 1.17 µM); in assay [2], 0.5 µg/mL (≈ 1.17 µM); in assay [3], 0.125 µg/mL (≈ 0.293 µM).

`CC(=O)NC1CN(c2nc3c(C#N)c(C)c(-c4ccccc4)c(N4CC[C@H](N(C)C)C4)c3o2)C1` [Example 126]: in assay [1], the “GI80 (μg/ml) C. albicans ATCC MYA-573” value is 0.5 µg/mL (≈ 1.09 µM). In addition, the “GI80 (μg/ml) C. albicans ATCC90028” value in assay [2] worked out at 0.5 µg/mL (≈ 1.09 µM). Besides, the “GI80 (μg/ml) C. glabrata ATCC48435” value in assay [3] came out at 0.125 µg/mL (≈ 0.273 µM).

With `Cc1c(-c2ccccc2)c(N2CC[C@H](N(C)C)C2)c2oc(N3CCCC3=O)nc2c1C#N` [Example 129], in assay [1], the “GI80 (μg/ml) C. albicans ATCC MYA-573” value stood at 0.5 µg/mL (≈ 1.16 µM). Moreover, the “GI80 (μg/ml) C. albicans ATCC90028” value in assay [2] was 0.25 µg/mL (≈ 0.582 µM). For the same compound, the “GI80 (μg/ml) C. glabrata ATCC48435” value in assay [3] is 0.063 µg/mL (≈ 0.147 µM).

In the case of `CN[C@H]1CCN(c2c(-c3ccccc3)c(C)c(C#N)c3nc(C(=O)N(C)CCF)oc23)C1` [Example 134, 4-Cyano-N-(2-fluoroethyl)-N,5-dimethyl-7-[(3S)-3-(methylamino)pyrrolidin-1-yl]-6-phenyl-1,3-benzoxazole-2-carboxamide], the IC80 turned out to be 0.5 µg/mL (≈ 1.15 µM) in assay [1], 0.5 µg/mL (≈ 1.15 µM) in assay [2] and 0.125 µg/mL (≈ 0.287 µM) in assay [3].

On to `CN[C@H]1CCN(c2c(-c3ccccc3)c(CF)c(C#N)c3nc(C4CC4)oc23)C1` [Example 140, 2-Cyclopropyl-5-fluoromethyl-7-[(3S)-3-(methylamino)pyrrolidin-1-yl]-6-phenyl-1,3-benzoxazole-4-carbonitrile], for which the IC80 was 0.5 µg/mL (≈ 1.28 µM) in assay [1], 0.5 µg/mL (≈ 1.28 µM) in assay [2] and 0.125 µg/mL (≈ 0.32 µM) in assay [3].

As to `Cc1c(-c2ccsc2)c(N2CC[C@H](N(C)C)C2)c2oc(C3CC3)nc2c1C#N` [Example 144-1, 2-Cyclopropyl-7-[(3S)-3-(dimethylamino)pyrrolidin-1-yl]-5-methyl-6-(thiophen-3-yl)-1,3-benzoxazole-4-carbonitrile], the figures for the IC80 in assay [1], in assay [2] and in assay [3] were 0.25 µg/mL (≈ 0.637 µM), 0.25 µg/mL (≈ 0.637 µM) and 0.032 µg/mL (≈ 0.0815 µM), respectively.

(Values after patent publication US7737166B2, “Antifungal bicyclic hetero ring compounds” (Daiichi Sankyo Company, Limited, priority 2005, dated 2010).)
